Laboratory results from PMC12154458, “High-Throughput Screens of Repurposing Hub and DOS Chemical Libraries Reveal Compounds with Novel and Potent Inhibitory Activity Against the Essential Non-Neuronal Acetylcholinesterase of Schistosoma mansoni (SmTAChE)” (International Journal of Molecular Sciences, 2025).

Assays:
[1] = tested on: newly transformed S. mansoni schistosomula; conditions: survival over 3 days; read-out: IC50 against schistosomula; cited from earlier work
rSmTAChE [2] = target: T1, rSmTAChE (Schistosoma mansoni, UniProt A0A3Q0KMM5); format: biochemical;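 for Inhibition (%) (Average): mostly 20 µM final but a few compounds at 5 or 10 µM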;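 for Inhibition (%) Replicate A: mostly 20 µM final but a few compounds at 5 or 10 µM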;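 for Inhibition (%) Replicate B: mostly 20 µM final but a few compounds at 5 or 10 µM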
T1 sequence (A0A3Q0KMM5 27-661 limits assumed): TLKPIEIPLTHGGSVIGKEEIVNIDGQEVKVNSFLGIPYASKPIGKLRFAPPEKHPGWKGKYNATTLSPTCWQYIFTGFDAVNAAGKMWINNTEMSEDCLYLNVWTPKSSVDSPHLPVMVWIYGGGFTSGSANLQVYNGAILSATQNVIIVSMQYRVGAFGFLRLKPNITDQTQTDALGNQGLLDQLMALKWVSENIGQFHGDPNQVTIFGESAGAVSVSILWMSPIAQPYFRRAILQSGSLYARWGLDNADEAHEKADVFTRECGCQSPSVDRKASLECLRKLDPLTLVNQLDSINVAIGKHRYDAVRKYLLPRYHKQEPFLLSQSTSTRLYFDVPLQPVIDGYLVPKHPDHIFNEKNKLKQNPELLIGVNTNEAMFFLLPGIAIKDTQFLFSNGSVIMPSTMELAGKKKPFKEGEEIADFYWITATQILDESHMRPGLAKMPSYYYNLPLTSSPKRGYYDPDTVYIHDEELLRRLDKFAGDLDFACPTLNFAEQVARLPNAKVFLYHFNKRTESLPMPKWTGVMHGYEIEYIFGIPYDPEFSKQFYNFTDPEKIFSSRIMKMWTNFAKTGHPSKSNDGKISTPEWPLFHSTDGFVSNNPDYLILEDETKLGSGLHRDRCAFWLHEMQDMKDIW

[3] = tested on: S. mansoni adult male and female worms; conditions: survival over 3 days; read-out: IC50 against adults; cited from earlier work
[4] = target: recombinant human acetylcholinesterase, rHsAChE (Homo sapiens, UniProt P22303); test: biochemical
Chain of recombinant human acetylcholinesterase, rHsAChE (P22303 32-614): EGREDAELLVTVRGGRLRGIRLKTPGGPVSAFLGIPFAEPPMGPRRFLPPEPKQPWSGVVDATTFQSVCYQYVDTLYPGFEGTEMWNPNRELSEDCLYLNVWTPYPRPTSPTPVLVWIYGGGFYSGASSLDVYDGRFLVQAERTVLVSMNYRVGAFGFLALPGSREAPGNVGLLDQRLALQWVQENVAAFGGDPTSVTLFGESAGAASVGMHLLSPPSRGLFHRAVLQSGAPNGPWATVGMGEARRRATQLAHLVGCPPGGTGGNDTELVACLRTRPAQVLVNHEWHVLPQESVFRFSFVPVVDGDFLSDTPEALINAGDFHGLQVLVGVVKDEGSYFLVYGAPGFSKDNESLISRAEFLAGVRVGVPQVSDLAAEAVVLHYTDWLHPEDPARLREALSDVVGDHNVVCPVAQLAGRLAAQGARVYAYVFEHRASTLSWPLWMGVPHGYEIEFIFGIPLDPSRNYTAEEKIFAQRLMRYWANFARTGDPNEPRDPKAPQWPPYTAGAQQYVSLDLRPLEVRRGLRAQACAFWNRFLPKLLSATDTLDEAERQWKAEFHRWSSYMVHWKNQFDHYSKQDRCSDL

S. mansoni worms in vivo = conditions: one time 200 mg/kg by oral gavage, four mice, 16–18 days post-drug administration; cited from earlier work
rSmTAChE [5] = target: T1, rSmTAChE; test: biochemical

Nc1nc(NCC2CCC(CNS(=O)(=O)c3cccc4ccccc34)CC2)nc2ccccc12 (stereo not shown) [CGP-71683, reference compound]
IC50 [1]: ~1000 nM | Data Mode (curve class), rSmTAChE (rSmTAChE [2]): decreasing | SI (Hs/Sm) (rSmTAChE [2]): 8.82 | fold greater potency/selectivity for SmTAChE vs. HsAChE (Selectivity Index) (rSmTAChE [2]): about 10 fold | IC50 (rSmTAChE [2]; read-out: IC50 (µM) rSmTAChE): 2.21 µM | IC50 [3]: ~2000 nM | Data Mode (curve class), rHsAChE [4]: decreasing (weakly active) | IC50 ([4]; read-out: IC50 (µM) rHsAChE): > 19.5 µM | worm burden compared to the controls (S. mansoni worms in vivo): no differences in worm burden | Inhibition (%) (Average) (rSmTAChE [5]): 61.37% | Inhibition (%) Replicate A (rSmTAChE [5]): 61.71% | Inhibition (%) Replicate B (rSmTAChE [5]): 61.03% | HTS/rSmTAChE Inhibition (Ave, %) (rSmTAChE [5]; 5 µM): 61.37%
